Test results from patent publication US20240041042A1, “1-(PYRIDYL)-5-AZINYLPYRAZOLE DERIVATIVES, AND THEIR USE FOR CONTROL OF UNDESIRED PLANT GROWTH” (Bayer Aktiengesellschaft, priority 2020, published 2024).
Like-named read-outs stand apart in the source and are kept apart here.

Experiments:
Type in all cases: in vivo
[1] = tested on: Alopecurus myosuroides (ALOMY); assay: Post-emergence herbicidal action against ALOMY; details: 320 g/ha, visual rating about 3 weeks after treatment vs untreated controls (100% = plants have died, 0% = like control plants)
Summary of the method: (§1)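 Greenhouse plants sprayed at the one-leaf stage, 2–3 weeks after sowing, with WP or EC formulations plus 0.5% additive at 600 l/ha water. Activity rated visually after about 3 weeks versus untreated controls (100% = dead, 0% = like control), at 320 g/ha or lower.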

Avena fatua (AVEFA) = assay: Post-emergence herbicidal action against AVEFA; details: visual rating about 3 weeks after treatment
Summary of the method: as §1

[2] = tested on: Digitaria sanguinalis (DIGSA); assay: Post-emergence herbicidal action against DIGSA; details: visual rating about 3 weeks after treatment
Description: Seeds of monocotyledonous and dicotyledonous weeds and crop plants are placed in sandy loam in plastic or organic planting pots, covered with soil and cultivated in a greenhouse under controlled growth conditions. 2 to 3 weeks after sowing, the test plants are treated at the one-leaf stage. The compounds of the invention, formulated in the form of wettable powders (WP) or as emulsion concentrates (EC), are then sprayed onto the green parts of the plants as aqueous suspension or emulsion with addition of 0.5% additive at a water application rate of 600 l/ha (converted). After the test plants have been kept in the greenhouse under optimum growth conditions for about 3 weeks, the activity of the preparations is rated visually in comparison to untreated controls. For example, 100% activity=the plants have died, 0% activity=like control plants.
Tables B1 to B13 below show the effects of selected compounds of the general formula (I) according to Table 1 on various harmful plants and at an application rate corresponding to 320 g/ha or lower, which were obtained by the experimental procedure mentioned above. The appendices “a”, “b” and “c” give differentiation by dosage used with otherwise the same harmful plants tested.

[3] = tested on: Echinochloa crus-galli (ECHCG); assay: Post-emergence herbicidal action against ECHCG
Summary of the method: as §1

Lolium rigidum (LOLRI) = assay: Post-emergence herbicidal action against LOLRI; details: dosage 320 g/ha
Summary of the method: as §1

[4] = tested on: Pharbitis purpurea (PHBPU); assay: Post-emergence herbicidal action against PHBPU
Summary of the method: as §1

[5] = tested on: Polygonum convolvulus (POLCO); assay: Post-emergence herbicidal action against POLCO
Summary of the method: as §1

Setaria viridis (SETVI) = assay: Post-emergence herbicidal action against SETVI
Summary of the method: as §1

[6] = tested on: Verconica persica (VERPE); assay: Post-emergence herbicidal action against VERPE
Summary of the method: as §1

Viola tricolor (VIOTR) = assay: Post-emergence herbicidal action against VIOTR
Summary of the method: as §1

Oryza sativa (ORYSA) = details: crop plant compatibility
Summary of the method: (§2)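 One-leaf-stage crops (2–3 wk post-sowing, sandy loam, greenhouse) sprayed on green parts; 0.5% additive, 600 l/ha water. Rated by eye ~3 wk later, % vs untreated; suffixes a/b/c mark different dosages.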

Zea mays (ZEAMX) = details: for Post-emergence action against ZEAMX in % (crop plant compatibility): 20 g/ha, effect in comparison to untreated controls; for Post-emergence action against ZEAMX in %: crop plant compatibility, 80 g/ha, effect vs untreated controls
Summary of the method: as §2

[7] = tested on: Abutilon theophrasti (ABUTH); assay: Post-emergence herbicidal action against ABUTH; details: 320 g/ha, visual rating about 3 weeks after treatment vs untreated controls (100% = plants have died, 0% = like control plants)
Summary of the method: as §1

[8] = 20 g/ha, effect vs untreated controls
[9] = 80 g/ha, effect in comparison to untreated controls

Post-emergence action against ORYSA in % (Oryza sativa (ORYSA); [8])	Post-emergence action against ORYSA in % (Oryza sativa (ORYSA); [9])	Post-emergence action against ZEAMX in % (crop plant compatibility) (Zea mays (ZEAMX))	Post-emergence action against ZEAMX in % (Zea mays (ZEAMX))	Structure (SMILES)	Post-emergence action against ALOMY in % [1]	Post-emergence action against AVEFA in % (Avena fatua (AVEFA); 80 g/ha)	Post-emergence action against AVEFA in % (Avena fatua (AVEFA); 320 g/ha)	Post-emergence action against DIGSA in % ([2]; 80 g/ha)	Post-emergence action against DIGSA in % ([2]; 320 g/ha)	Post-emergence action against ECHCG in % ([3]; dosage 80 g/ha)	Post-emergence action against ECHCG in % ([3]; dosage 320 g/ha)	Post-emergence action against LOLRI in % (Lolium rigidum (LOLRI))	Post-emergence action against PHBPU in % ([4]; dosage 320 g/ha)	Post-emergence action against POLCO in % ([5]; dosage 320 g/ha)	Post-emergence action against SETVI in % (Setaria viridis (SETVI); dosage 80 g/ha)	Post-emergence action against SETVI in % (Setaria viridis (SETVI); dosage 320 g/ha)	Post-emergence action against VERPE in % ([6]; 320 g/ha, VERPE)	Post-emergence action against VERPE in % ([6]; dosage 80 g/ha)	Post-emergence action against VIOTR in % (Viola tricolor (VIOTR); 320 g/ha)	also measured
0%	10%	0%	20%	COC(=O)C(C)COC(=O)COc1nn(-c2ncccc2F)c(-c2ccc(F)nc2)c1C1CC1 (centres unmarked) [Example I-382]	90%	90%	90%	80%	90%	80%	90%	90%	80%	80%	90%	90%	80%	80%	90%	Post-emergence action against PHBPU in % ([4]; dosage 80 g/ha): 80%; Post-emergence action against VIOTR in % (Viola tricolor (VIOTR); 80 g/ha): 80%
10%	10%			C[C@@H](Oc1nn(-c2ccccn2)c(-c2ccc(F)nc2)c1Br)C(=O)O [Example I-260]	90%	80%	80%	90%	90%		90%	80%	80%	80%		90%	80%			Post-emergence action against ABUTH in % [7]: 80%; Post-emergence action against POLCO in % ([5]; dosage 80 g/ha): 80%
0%	10%	0%	10%	COC(=O)CCOC(=O)[C@@H](C)Oc1nn(-c2ccccn2)c(-c2ccc(F)nc2)c1Br [Example I-290]	90%			90%	90%	80%	90%	80%	90%	80%	90%	90%	80%	80%	80%	
